Source: PubChem BioAssay AID256 (DTP/NCI, 2004)
Several values for one entry are separate records, joined by “and”; a condition that tells them apart may be missing. Equal values may be shown once. Toxic doses and inconclusive results are not listed.

Tested on: CD2F1 mice, L1210 leukemia ip, survival T/C
Assay: NCI In Vivo Anticancer Drug Screen. Data for tumor model L1210 Leukemia (intraperitoneal) in CD2F1 (CDF1) mice
Conditions: higher = longer survival
How it was run: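 Activity against a transplanted murine tumor was judged by comparing the compound group with a vehicle group. The outcome in the treated animals was divided by that in the controls.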

[1] = endpoint: mean survival time, dose: 100.0 mg/kg/injection, schedule: Q04DX002 (ip), vehicle: saline with Tween-80
[2] = endpoint: mean survival time, dose: 200.0 mg/kg/injection, schedule: Q04DX002 (ip), vehicle: saline with Tween-80
[3] = endpoint: mean survival time, dose: 100.0 mg/kg/injection, schedule: Q01DX009 (ip), vehicle: saline with Tween-80
[4] = endpoint: mean survival time, dose: 100.0 mg/kg/injection, schedule: Q04DX003 (ip), vehicle: saline with Tween-80
[5] = endpoint: mean survival time, dose: 200.0 mg/kg/injection, schedule: Q01DX009 (ip), vehicle: saline with Tween-80
[6] = endpoint: mean survival time, dose: 200.0 mg/kg/injection, schedule: Q04DX003 (ip), vehicle: saline with Tween-80
[7] = endpoint: mean survival time, dose: 400.0 mg/kg/injection, schedule: Q01DX009 (ip), vehicle: saline with Tween-80
[8] = endpoint: mean survival time, dose: 100.0 mg/kg/injection, schedule: Q01DX009 (ip), vehicle: saline
[9] = endpoint: mean survival time, dose: 100.0 mg/kg/injection, schedule: Q04DX003 (ip), vehicle: saline
[10] = endpoint: mean survival time, dose: 25.0 mg/kg/injection, schedule: Q01DX009 (ip), vehicle: Klucel (hydroxypropylcellulose) (HPC)

## COc1oc(C2C/C(=C/C(C)=C/C(C)=C/C(C)=C/c3ccc([N+](=O)[O-])cc3)CO2)c(C)c(=O)c1C (stereo unspecified)
endpoint: median survival time, dose: 0.25 mg/kg/injection, schedule: Q01DX009 (ip), vehicle: saline
  T/C: 104 % of control and 108 % of control
endpoint: median survival time, dose: 0.5 mg/kg/injection, schedule: Q01DX009 (ip), vehicle: saline
  T/C: 118 % of control and 124 % of control and 112 % of control
endpoint: median survival time, dose: 1.0 mg/kg/injection, schedule: Q01DX009 (ip), vehicle: saline
  T/C: 118 % of control and 124 % of control
endpoint: median survival time, dose: 2.0 mg/kg/injection, schedule: Q01DX009 (ip), vehicle: saline
  T/C: 120 % of control
endpoint: median survival time, dose: 4.0 mg/kg/injection, schedule: Q01DX009 (ip), vehicle: saline
  T/C: 103 % of control

## Cn1c(CS)nc2ccccc21
[1]
  T/C: 101 % of control
[2]
  T/C: 93 % of control

## N#CCCCCCCn1cnc2c(N)ncnc21
endpoint: mean survival time, dose: 50.0 mg/kg/injection, schedule: Q04DX002 (ip), vehicle: saline with Tween-80
  T/C: 102 % of control
endpoint: mean survival time, dose: 100.0 mg/kg/injection, schedule: Q01DX001 (ip), vehicle: saline with Tween-80
  T/C: 97 % of control
[1]
  T/C: 105 % of control
endpoint: mean survival time, dose: 200.0 mg/kg/injection, schedule: Q01DX001 (ip), vehicle: saline with Tween-80
  T/C: 97 % of control
[2]
  T/C: 90 % of control

## CN(C)CC(CN(C)C)C(=O)O
endpoint: mean survival time, dose: 50.0 mg/kg/injection, schedule: Q01DX001 (ip), vehicle: saline
  T/C: 103 % of control
endpoint: mean survival time, dose: 100.0 mg/kg/injection, schedule: Q01DX001 (ip), vehicle: saline
  T/C: 104 % of control
endpoint: mean survival time, dose: 200.0 mg/kg/injection, schedule: Q01DX001 (ip), vehicle: saline
  T/C: 108 % of control

## CC1(C(=O)O)CCCC2(C)C3=C(CCCC3)CCC12 (stereo unspecified)
[3]
  T/C: 96 % of control
[4]
  T/C: 98 % of control
[5]
  T/C: 93 % of control
[6]
  T/C: 93 % of control
[7]
  T/C: 102 % of control
endpoint: mean survival time, dose: 400.0 mg/kg/injection, schedule: Q04DX003 (ip), vehicle: saline with Tween-80
  T/C: 90 % of control

## Nc1ccc(-c2c(N)ncc3ccccc23)cc1
endpoint: mean survival time, dose: 50.0 mg/kg/injection, schedule: Q04DX003 (ip), vehicle: DMSO
  T/C: 101 % of control

## CC1(OO)CC(=O)OO1 (stereo unspecified)
endpoint: mean survival time, dose: 5.0 mg/kg/injection, schedule: Q01DX001 (ip), vehicle: saline
  T/C: 90 % of control
endpoint: mean survival time, dose: 10.0 mg/kg/injection, schedule: Q01DX001 (ip), vehicle: saline
  T/C: 95 % of control
endpoint: mean survival time, dose: 20.0 mg/kg/injection, schedule: Q01DX001 (ip), vehicle: saline
  T/C: 92 % of control

## COc1ccc(NC(=O)C2C3C=CC(C3)C2C(=O)O)cc1 (stereo unspecified)
[4]
  T/C: 98 % of control
[6]
  T/C: 98 % of control

## Cc1ccc(S(=O)(=O)/C=C(/I)C(=O)c2ccccc2)cc1
[8]
  T/C: 90 % of control
[9]
  T/C: 100 % of control
endpoint: mean survival time, dose: 200.0 mg/kg/injection, schedule: Q01DX009 (ip), vehicle: saline
  T/C: 93 % of control
endpoint: mean survival time, dose: 200.0 mg/kg/injection, schedule: Q04DX003 (ip), vehicle: saline
  T/C: 96 % of control
endpoint: mean survival time, dose: 400.0 mg/kg/injection, schedule: Q01DX009 (ip), vehicle: saline
  T/C: 88 % of control
endpoint: mean survival time, dose: 400.0 mg/kg/injection, schedule: Q04DX003 (ip), vehicle: saline
  T/C: 108 % of control

## COc1cccc(C(=O)O)c1OC
[3]
  T/C: 109 % of control
[5]
  T/C: 94 % of control
[7]
  T/C: 102 % of control

## CNC1(Cc2ccc(F)cc2)CCC1
endpoint: mean survival time, dose: 25.0 mg/kg/injection, schedule: Q01DX009 (ip), vehicle: saline
  T/C: 100 % of control
endpoint: mean survival time, dose: 50.0 mg/kg/injection, schedule: Q01DX009 (ip), vehicle: saline
  T/C: 102 % of control
[8]
  T/C: 100 % of control

## O=[N+]([O-])c1cc(F)ccc1O
[3]
  T/C: 96 % of control

## CCOC(=O)CC(COC)C(Br)(C(=O)OCC)C(=O)OCC (stereo unspecified)
endpoint: mean survival time, dose: 1.56 mg/kg/injection, schedule: Q01DX009 (ip), vehicle: Klucel (hydroxypropylcellulose) (HPC)
  T/C: 104 % of control
endpoint: mean survival time, dose: 3.13 mg/kg/injection, schedule: Q01DX009 (ip), vehicle: Klucel (hydroxypropylcellulose) (HPC)
  T/C: 107 % of control
endpoint: mean survival time, dose: 6.25 mg/kg/injection, schedule: Q01DX009 (ip), vehicle: Klucel (hydroxypropylcellulose) (HPC)
  T/C: 102 % of control
endpoint: mean survival time, dose: 12.5 mg/kg/injection, schedule: Q01DX009 (ip), vehicle: Klucel (hydroxypropylcellulose) (HPC)
  T/C: 104 % of control
[10]
  T/C: 104 % of control

## CCOc1cc(NCCCN)c2nc(OCc3ccccc3)ccc2c1
endpoint: mean survival time, dose: 75.0 mg/kg/injection, schedule: Q01DX001 (ip), vehicle: saline
  T/C: 96 % of control

## CC(C)COCCCN
[9]
  T/C: 98 % of control

## CC[NH-].CC[NH-].[Cl][Pt+2][Cl]
endpoint: mean survival time, dose: 2.5 mg/kg/injection, schedule: Q04DX003 (ip), vehicle: water
  T/C: 115 % of control
endpoint: mean survival time, dose: 5.0 mg/kg/injection, schedule: Q04DX003 (ip), vehicle: water
  T/C: 116 % of control
endpoint: mean survival time, dose: 10.0 mg/kg/injection, schedule: Q04DX003 (ip), vehicle: water
  T/C: 112 % of control

## CCOC(=O)CCC(NC(=O)c1cc(Cl)c(N(CC)Cc2cnc3nc(N)nc(N)c3n2)c(Cl)c1)C(=O)OCC (stereo unspecified)
[10]
  T/C: 170 % of control
